Data on 19 compounds can be found in patent US20190375708A1 (VenatoRx Pharmaceuticals, Inc., priority 2018, published 2019).

Structures are written as SMILES.

Data set [1] in a line: In vitro cytotoxicity assay (MTT cell viability) in HepG2 cells. It counts as cell-based, human. The conditions noted are these: human. Put shortly:
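HepG2 cells incubated 7 days at 37 °C, 5% CO2 with compounds from 30 μM to 1.0 nM (8 half-log dilutions). Viability read as MTT formazan absorbance at 492 nm, normalised to vehicle controls; CC50 from 4-parameter non-linear regression.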

For data set [2], the system named is HBV replication in HepAD38 cells. The data set is described as follows: Anti-HBV replication assay in HepAD38 cells (QPCR of extracellular HBV DNA). The conditions noted are these: Hepatitis B virus, 168 h, 7 days incubation, extracellular HBV DNA by QPCR, read-out: Anti-HBV EC50. The data set is classed as cell-based, HBV (genotype D, serotype ayw). The essentials:
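EC50 values reflect 50% reduction of extracellular HBV DNA, measured by QPCR after 7-day treatment of tetracycline-deprived HepAD38 cells with compound […].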

As usually defined, the CC50 is the concentration that lowers cell viability or growth by half. The low end stands for harm at low concentration, the high end for better tolerance by the cells. In general, EC50 refers to the concentration that produces a half-maximal response.

As for `Cc1c(C(=O)Nc2ccnc(F)c2)c(C)n(C)c1C(=O)C(=O)NC1CCSCC1` [Example 272, N-(2-fluoropyridin-4-yl)-1,2,4-trimethyl-5-(2-oxo-2-((tetrahydro-2H-thiopyran-4-yl)amino)acetyl)-1H-pyrrole-3-carboxamide], in data set [1], the cytotoxic concentration (CC50) at 7 days was more than 30000 nM. Moreover, in data set [2], the concentration giving a half-maximal response (EC50) was less than 50 nM.
The matching figures for `Cc1cc(NC(=O)c2c(C)c(C(=O)C(=O)NC34CC5CC(CC(O)(C5)C3)C4)n(CCO)c2C)ccc1F` [Example 73, N-(4-fluoro-3-methylphenyl)-5-(2-(((1r,3s,5R,7S)-3-hydroxyadamantan-1-yl)amino)-2-oxoacetyl)-1-(2-hydroxyethyl)-2,4-dimethyl-1H-pyrrole-3-carboxamide]: more than 30000 nM and more than 1000 nM.
The corresponding values for `Cc1c(C(=O)Nc2ccc(F)cn2)c(C)n(C)c1C(=O)C(=O)NC12CC3CC(CC1C3)C2` [Example 135, N-(5-fluoropyridin-2-yl)-5-(2-(((2R,3as,5S,6as)-hexahydro-2,5-methanopentalen-3a(1H)-l)amino)-2-oxoacetyl)-1,2,4-trimethyl-1H-pyrrole-3-carboxamide] are 5000 to 30000 nM and 50 to 499 nM.
`Cc1cc(NC(=O)c2c(C)c(C(=O)C(=O)N[C@H](C)CCO)n(C)c2C)ccc1F` [Example 141, (R)-N-(4-fluoro-3-methylphenyl)-5-(2-((4-hydroxybutan-2-yl)amino)-2-oxoacetyl)-1,2,4-trimethyl-1H-pyrrole-3-carboxamide] showed a CC50 at 7 days in data set [1] of more than 30000 nM. In addition, in data set [2], the EC50 was less than 50 nM.
The matching figures for `Cc1cc(NC(=O)c2c(C)c(C(=O)C(=O)N[C@H](C(=O)O)[C@H](C)O)n(C)c2C)ccc1F` [Example 51, (2-(4-((4-fluoro-3-methylphenyl)carbamoyl)-1,3,5-trimethyl-1H-pyrrol-2-yl)-2-oxoacetyl)-L-allothreonine]: more than 30000 nM and 50 to 499 nM.
The corresponding values for `Cc1cnc(C(C)(C)NC(=O)C(=O)c2c(C)c(C(=O)Nc3ccc(F)c(C)c3)c(C)n2C)s1` [Example 84, N-(4-fluoro-3-methylphenyl)-1,2,4-trimethyl-5-(2-((2-(5-methylthiazol-2-yl)propan-2-yl)amino)-2-oxoacetyl)-1H-pyrrole-3-carboxamide] are more than 30000 nM and less than 50 nM.
The matching figures for `Cc1cc(NC(=O)c2c(C)c(C(=O)C(=O)N[C@@H](C(=O)O)C3CCCCC3)n(C)c2C)ccc1F` [Example 69, (R)-2-cyclohexyl-2-(2-(4-((4-fluoro-3-methylphenyl)carbamoyl)-1,3,5-trimethyl-1H-pyrrol-2-yl)-2-oxoacetamido)acetic acid]: more than 30000 nM and 500 to 1000 nM.
In turn, `Cc1cc(NC(=O)c2c(C)c(C(=O)C(=O)N[C@@H]3CCC[C@@H]3O)n(C)c2Cl)ccc1F` [Example 390, 2-chloro-N-(4-fluoro-3-methylphenyl)-5-(2-(((1R,2S)-2-hydroxycyclopentyl)amino)-2-oxacetyl)-1,4-dimethyl-1H-pyrrole-3-carboxamide] had a CC50 at 7 days in data set [1] of more than 30000 nM. In addition, the EC50 in data set [2] fell in the range of 50 to 499 nM.
The corresponding values for `Cc1cc(NC(=O)c2c(C)c(C(=O)C(=O)N[C@H](C(=O)O)C(C)C)n(C)c2C)ccc1F` [Example 100, (2-(4-((4-fluoro-3-methylphenyl)carbamoyl)-1,3,5-trimethyl-1H-pyrrol-2-yl)-2-oxoacetyl)-L-valine] are 5000 to 30000 nM and more than 1000 nM.
The matching figures for `Cc1cc(NC(=O)c2c(C)c(C(=O)C(=O)NC3CCCN(C)CC3)n(C)c2C)ccc1F` (centres unmarked) [Example 353, N-(44-fluoro-3-methylphenyl)-1,2,4-trimethyl-5-(2-((1-methylazepan-4-yl)amino)-2-oxoacetyl)-1H-pyrrole-3-carboxamide]: more than 30000 nM and 50 to 499 nM.
The corresponding values for `Cc1noc([C@H](C)NC(=O)C(=O)c2c(Cl)c(C(=O)Nc3ccc(F)c(F)c3)c3n2CCCC3)n1` [Example 516, (S)-2-chloro-N-(3,4-difluorophenyl)-3-(2-((1-(3-methyl-1,2,4-oxadiazol-5-yl)ethyl)amino)-2-oxoacetyl)-5,6,7,8-tetrahydroindolizine--1 carboxamide] are more than 30000 nM and 50 to 499 nM.
With `Cc1cc(NC(=O)c2c(Cl)c(C(=O)C(=O)NCC(C)(C)O)n3c2CCC3)ccc1F` [Example 550, 6-chloro-N-(4-fluoro-3-methylphenyl)-5-(2-((2-hydroxy-2-methylpropyl)amino)-2-oxoacetyl)-2,3-dihydro-1H-pyrrolizine-7-carboamide], the 50% cytotoxic concentration (CC50) at 7 days in data set [1] is more than 30000 nM. For the same compound, the EC50 in data set [2] was less than 50 nM.
The matching figures for `Cc1c(C(=O)Nc2ccc(F)nc2)c(C)n(C)c1C(=O)C(=O)N[C@H]1C2CC3CC1C[C@](O)(C3)C2` [Example 92, N-(6-fluoropyridin-3-yl)-5-(2-(((1R,2s,3S,5s,7s)-5-hydroxyadamantan-2-yl)amino)-2-oxoacetyl)-1,2,4-trimethyl-1H-pyrrole-3-carboxamide]: more than 30000 nM and 50 to 499 nM.
`Cc1c(C(=O)Nc2ccc(F)c(F)c2)c(C)n(C)c1C(=O)C(=O)N[C@]1(C)CC[C@@H](O)CC1` [Example 706, N-(3,4-difluorophenyl)-5-(2-(((1r,4r)-4-hydroxy-1-methylcyclohexxyl)amino)-2-oxoacetyl)-1,2,4-trimethyl-1H-pyrrole-3-carboxmaide] had a CC50 at 7 days in data set [1] of more than 30000 nM. The 50% effective concentration (EC50) in data set [2] is less than 50 nM.
In data set [1], `Cc1c(C(=O)Nc2ccnc(F)c2)c(C)n(C)c1C(=O)C(=O)NC1(C(F)(F)F)CCOCC1` [Example 271, N-(2-fluoropyridin-4-yl)-1,2,4-trimethyl-5-(2-oxo-2-((4-(trifluoromethyl)tetrahydro-2H-pyran-4-yl)amino)acetyl)-1H-pyrrole-3-carboxamide] registered a CC50 at 7 days of more than 30000 nM. For the same compound, the EC50 in data set [2] is less than 50 nM.
The matching figures for `Cc1cc(NC(=O)c2c(C)c(C(=O)C(=O)NC(C)(C)C)n(C)c2Cl)ccc1F` [Example 386, 5-(2-(tert-butylamino)-2-oxoacetyl)-2-chloro-N-(4-fluoro-3-methylphenyl)-1,4-dimethyl-1H-pyrrole-3-carboxamide]: 5000 to 30000 nM and more than 1000 nM.
As to `Cc1cc(NC(=O)c2cc(C(=O)C(=O)NC3(C(F)(F)F)CCC3)n3c2CCCC3)ccc1F` [Example 403], in data set [1], the CC50 at 7 days was more than 30000 nM. Moreover, in data set [2], the concentration giving a half-maximal response (EC50) was 50 to 499 nM.
The corresponding values for `Cc1noc([C@H](C)NC(=O)C(=O)c2c(C)c(C(=O)Nc3ccc(F)c(C)c3)c(C)n2C)n1` [Example 215, (S)-N-(4-fluoro-3-methylphenyl)-1,2,4-trimethyl-5-(2-((1-(3-methyl-1,2,4-oxadiazol-5-yl)ethyl)amino)-2-oxoacetyl)-1H-pyrrole-3-carboxamide] are more than 30000 nM and less than 50 nM.
The corresponding values for `COc1c(C(=O)Nc2ccc(F)c(F)c2)c(C)n(C)c1C(=O)C(=O)NC(C)(C)CO` [Example 381, N-(3,4-difluorophenyl)-5-(2-((1-hydroxy-2-methylpropan-2-yl)amino)-2-oxoacetyl)-4-methoxy-1,2-dimethyl-1H-pyrrole-3-carboxamide] are more than 30000 nM and 50 to 499 nM.
